Tests used:
Test in all cases: standardised AUC of viability dose-response curve (72 h) (fraction (0-1)); higher = less growth inhibition (more resistant)
[1] = system: VA-ES-BJ
Outline: (§1)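 In 384-well plates, sarcoma cell lines were exposed for 72 h, in triplicate, to 2.5 µl of a 1:3 compound dilution series whose compound-plate concentrations ran from 10 mM to 0.0002 mM. Four-parameter log-logistic models were fitted per drug and cell line to ATPLite viability, scaled 1 (full) to 0 (none). From these fits, a modified drexplorer computeAUC gave the standardised area under the curve in log-dose space. Here 1 marks no response and 0 full response.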

[2] = system: A204
Outline: as §1

[3] = system: SYO-1
Outline: as §1

[4] = system: RD-ES
Outline: as §1

[5] = system: SK-LMS-1
Outline: as §1

[6] = system: G401
Outline: as §1

[7] = system: HS729
Outline: as §1

[8] = system: HT1080
Outline: as §1

[9] = system: SW872
Outline: as §1

[10] = system: RD
Outline: as §1

[11] = system: SW1353
Outline: as §1

[12] = system: SW982
Outline: as §1

[13] = system: KHOS-NP
Outline: as §1

[14] = system: MES-SA
Outline: as §1

[15] = system: SW684
Outline: as §1

[16] = system: SK-ES-1
Outline: as §1

[17] = system: KHOS-240S
Outline: as §1

Structure (SMILES)	standardised AUC [1]	standardised AUC [2]	standardised AUC [3]	standardised AUC [4]	standardised AUC [5]	standardised AUC [6]	standardised AUC [7]	standardised AUC [8]	standardised AUC [9]	standardised AUC [10]	standardised AUC [11]	standardised AUC [12]	standardised AUC [13]	standardised AUC [14]	standardised AUC [15]	standardised AUC [16]	standardised AUC [17]
CN1CCN(c2ccc3nc(-c4c(N)c5c(F)cccc5[nH]c4=O)[nH]c3c2)CC1 [DOVITINIB]	0.865	0.748	0.717	0.82	0.904	0.833	0.821	0.906	0.823	0.904	0.86	0.792	0.917	0.81	0.902	0.749	0.81
C[C@@H](c1ccc2nccn2c1)n1nnc2ncc(-c3cnn(C)c3)nc21 [VOLITINIB]	0.883	0.974	0.998	0.993	0.725	0.992	0.998	0.982	0.992	0.988	0.991	0.993	0.981	0.994	0.986	0.996	1
COc1c(OCCCN2CCOCC2)ccc2c1N=C(NC(=O)c1cnc(N)nc1)N1CCN=C21 [COPANLISIB]	0.568	0.516	0.655	0.472	0.617	0.654	0.583	0.83	0.541	0.556	0.675	0.609	0.802	0.474	0.569	0.483	0.693
CC1(C)CNc2cc(NC(=O)c3cccnc3NCc3ccncc3)ccc21 [MOTESANIB]	1	0.756	0.866	0.994	0.983	0.957	0.944	0.981	0.978	1	0.975	0.997	0.975	0.995	0.95	0.991	0.97
CNC(=O)c1cc(Oc2ccc(NC(=O)Nc3ccc(Cl)c(C(F)(F)F)c3)c(F)c2)ccn1 [REGORAFENIB]	0.977	0.768	0.816	0.974	0.904	0.874	0.873	0.96	0.93	0.91	0.958	0.96	0.856	0.934	0.992	0.943	0.936
CN1CCC(COc2cnc(-c3cccc(Cn4nc(-c5cccc(C#N)c5)ccc4=O)c3)nc2)CC1 [TEPOTINIB]	0.898	0.985	0.945	0.979	0.732	0.978	0.928	0.972	0.972	0.998	0.987	0.985	0.954	0.98	0.983	0.97	0.963
CO[C@H]1C[C@@H]2CC[C@@H](C)[C@@](O)(O2)C(=O)C(=O)N2CCCC[C@H]2C(=O)O[C@H]([C@H](C)C[C@@H]2CC[C@@H](OP(C)(C)=O)[C@H](OC)C2)CC(=O)[C@H](C)/C=C(\C)[C@@H](O)[C@@H](OC)C(=O)[C@H](C)C[C@H](C)/C=C/C=C/C=C/1C [RIDAFOROLIMUS]	0.587	0.643	0.874	0.764	0.645	0.832	0.937	0.925	0.686	0.748	0.796	0.729	0.97	0.542	0.798	0.682	0.867
CN[C@@H]1C[C@H]2O[C@@](C)([C@@H]1OC)n1c3ccccc3c3c4c(c5c6ccccc6n2c5c31)C(=O)NC4 [STAUROSPORINE]	0.346	0.309	0.288	0.435	0.376	0.331	0.409	0.313	0.337	0.343	0.294	0.25	0.369	0.435	0.427	0.398	0.284
CC[C@H](Nc1ncnc2[nH]cnc12)c1nc2cccc(F)c2c(=O)n1-c1ccccc1 [IDELALISIB]	0.934	0.939	0.949	0.968	0.919	0.931	0.905	0.99	0.937	0.982	0.897	0.971	0.978	0.957	0.761	0.963	0.968
CCN1CCN(Cc2ccc(Nc3ncc(F)c(-c4cc(F)c5nc(C)n(C(C)C)c5c4)n3)nc2)CC1 [ABEMACICLIB]	0.804	0.746	0.715	0.734	0.938	0.855	0.966	0.993	0.872	0.97	0.88	0.734	0.95	0.805	0.901	0.631	0.856
Cc1cc(Nc2ncnc3ccc(NC4=NC(C)(C)CO4)cc23)ccc1Oc1ccn2ncnc2c1 [TUCATINIB]	0.951	0.966	0.97	0.978	0.985	0.979	0.928	0.988	0.981	1	0.915	0.984	0.989	0.946	0.976	0.974	0.983
Cc1nc(-c2cn3c(n2)-c2ccc(-c4cnn(C(C)(C)C(N)=O)c4)cc2OCC3)n(C(C)C)n1 [TASELISIB]	0.727	0.675	0.84	0.675	0.771	0.744	0.77	0.989	0.76	0.727	0.855	0.826	0.975	0.664	0.702	0.68	0.843

From the supplement of paper PMC10883282
